In publication PMC3723632, “A Multi-targeted Drug Candidate with Dual Anti-HIV and Anti-HSV Activity” (PLoS Pathogens, 2013):

Assays:
PBMC = assay: Chemokine mRNA expression (RT-PCR) in PBMC; format: cell-based, human; details: 100 µg/ml, 4 h
Procedure: Figure 9 Expression of CC-chemokines, CCR5 and chemokine mRNA expression in PBMC cultures after drug treatment. Panel A: Production of CC-chemokines by PBMC and the effects of adefovir, tenofovir, and PMEO-DAPym on the expression of the CCR5 receptor. Freshly isolated PBMCs from four healthy donors were incubated for 24 h with medium only (NC) or with adefovir, tenofovir, or PMEO-DAPym. We collected the supernatants and measured the concentrations of MIP-1α (▪), MIP-1β (▴), and RANTES (•) using a Bioplex system (Bio-Rad, Hercules, CA). Shown are means ± SEM. The cells were also collected, and the expression of the CCR5 receptor (□) was measured with flow cytometry using the PE-labeled CCR5 (clone 2D7) mAb; it is shown as percentage of control (± SEM) from four independent representative experiments. Panel B: Chemokine mRNA expression upon PMEO-DAPym exposure to PBMC. RT-PCR analysis of MIP-1α, MIP-1β, RANTES, and GAPDH (control) expression in PBMC treated with 100-µg/ml PMEO-DAPym for 4 h. Similar results were obtained with PBMC from three different donors. Results from one representative donor are shown.
We isolated total RNA from approximately 10^6 PBMC using the RNeasy Mini Kit (QIAGEN, Hilden, Germany). To eliminate potential genomic DNA contamination, the samples were treated with DNase I (Roche). […]

[1] = system: organotypic epithelial raft cultures of the PHKs; assay: Histological examination of cell differentiation in raft cultures; details: highest tested concentration 50 µg/ml
Procedure: Primary human keratinocytes (PHKs) were seeded on top of collagen gels in 24-well microtiter plates and maintained submerged for 24–48 h. The collagen rafts were then raised and placed into stainless-steel grids at the interface between air and the liquid culture medium. The epithelial cells were allowed to stratify. Rafts were infected with 5,000 PFU of HSV-1KOS or HSV-2G at 10 days post lifting and treated with adefovir or PMEO-DAPym. Five days later, one series of rafts was fixed in 10% buffered formalin, embedded in paraffin, and stained with hematoxylin and eosin for histological evaluation.

**Q.** How did the “increase in MIP-1β and MIP-1α mRNA expression” value (PBMC) turn out when Nc1cc(OCCOCP(=O)(O)O)nc(N)n1 [PMEO-DAPym, 6-phosphonylmethoxyethoxy-2,4-diaminopyrimidine] was run?
**A.** > 9 fold

**Q.** And the “effect on cell differentiation (histological examination)” value [1]?
**A.** no effect on cell differentiation
